From US20080200442A1, “Compositions and Methods for Treating, Reducing, Ameliorating, or Preventing Infections of the Ear or Upper Respiratory Tract” (priority 2007, published 2008)
≈ marks a conversion by molar mass, not a printed value.

Columns and labels:
Assay type in all cases: cell-based
[1] = system: Bacteroides thetaiotaomicron (GAI 0659); test: In vitro anti-bacterial activity (MIC90), anaerobic reference bacteria; conditions: Bacteroides thetaiotaomicron
[2] = system: Salmonella typhimurium (TD); test: In vitro anti-bacterial activity (MIC90), Gram-negative reference strains
Method: Anti-bacterial activity of the compound having Formula III was tested against several Gram-negative reference bacteria strains and compared to the anti-bacterial activity of three commercially available antibiotics (nadifloxacin, ofloxacin, and sparfloxacin).

[3] = system: Propionibacterium acnes (ATCC 11828); test: In vitro anti-bacterial activity (MIC90), anaerobic reference bacteria; conditions: Cutibacterium acnes, ATCC11828
[4] = system: Bacteroides vulgatus (GAI 0673); test: as above; conditions: Phocaeicola vulgatus
Pseudomonas aeruginosa = test: In vitro anti-bacterial activity (MIC90), ophthalmologic clinical bacteria isolates; conditions: Gram-negative
[5] = system: Clostridium perfringens (KZ 210); test: microbe, parasite or virus in culture
[6] = system: Peptostreptococcus magnum (GAI 0664); test: In vitro anti-bacterial activity (MIC90), anaerobic reference bacteria
[7] = system: Gentamycin-resistant Pseudomonas aeruginosa; test: In vitro anti-bacterial activity (MIC90), ophthalmologic clinical bacteria isolates
[8] = system: Ofloxacin-resistant Staphylococcus aureus; test: as above
Streptococcus pneumoniae = test: as above; conditions: Gram-positive
[9] = system: Coagulase-negative Staphylococcus; test: as above; conditions: Gram-positive
[10] = system: Propionibacterium acnes (ATCC 6919); test: In vitro anti-bacterial activity (MIC90), anaerobic reference bacteria; conditions: Cutibacterium acnes, ATCC6919
[11] = system: Bacteroides fragillis (GAI 0675); test: as above
Propionibacterium acnes = test: In vitro anti-bacterial activity (MIC90), ophthalmologic clinical bacteria isolates; conditions: Cutibacterium acnes, Gram-positive
Staphylococcus aureus = test: as above; conditions: Gram-positive
[12] = system: Veillonella parvula (GAI 5602); test: In vitro anti-bacterial activity (MIC90), anaerobic reference bacteria
[13] = system: Streptococcus faecalis (ATCC 29212); test: In vitro anti-bacterial activity (MIC90), Gram-positive reference strains; conditions: Enterococcus faecalis, ATCC29212
Method: (§1) Anti-bacterial activity of the compound having Formula III was tested against several Gram-negative reference bacteria strains and compared to the anti-bacterial activity of three commercially available antibiotics (nadifloxacin, ofloxacin, and sparfloxacin). The results are shown in Table 2 as MIC90 values (minimum concentration of the active compound required to inhibit ninety percent of the growth of a specified pathogen, in μg/ml). Anti-bacterial activity of the compound having Formula III was tested against several Gram-positive reference bacteria strains and compared to the anti-bacterial activity of three commercially available antibiotics (nadifloxacin, ofloxacin, and sparfloxacin).

[14] = system: Bacillis subtilis (ATCC 6633); test: as above
Method: as §1

[15] = system: Streptococcus pyogenes (Cook); test: as above
Method: as §1

[16] = system: Streptococcus pneniae (IID 554); test: as above; conditions: IID554
Method: as §1

[17] = system: Streptococcus faecalis (IFO 12964); test: as above; conditions: Enterococcus faecalis, IFO12964
Method: as §1

[18] = system: Sarcina lutea (ATCC 9341); test: as above; conditions: Micrococcus luteus, ATCC9341
Method: as §1

[19] = system: Streptococcus pneumoniae (IID 553); test: as above; conditions: IID553
Method: as §1

[20] = system: Streptococcus pyogenes (IID 698); test: as above; conditions: IID698
Method: as §1

[21] = system: Staphylococcus epidermidis (ATCC 12228); test: as above; conditions: ATCC12228
Method: as §1

[22] = system: Staphylococcus aureus (ATCC 25933); test: as above; conditions: ATCC25933
Method: as §1

[23] = system: Staphylococcus aureus (FDA 209P); test: as above; conditions: FDA209P
Method: as §1

[24] = system: Staphylococcus aureus (Smith); test: as above
Method: as §1

[25] = system: Peptostreptococcus micros (GIFU 7824); test: In vitro anti-bacterial activity (MIC90), anaerobic reference bacteria; conditions: Parvimonas micra
Moraxella species = test: In vitro anti-bacterial activity (MIC90), ophthalmologic clinical bacteria isolates; conditions: Gram-negative
Haemophilus influenzae = test: as above; conditions: Gram-negative
[26] = system: Gentamycin-resistant Staphylococcus aureus; test: as above
[27] = system: Staphylococcus aureus (No. 420); test: In vitro anti-bacterial activity (MIC90), methicillin-resistant Staphylococcus aureus isolates; conditions: methicillin-resistant Staphylococcus aureus (No. 420)
Method: (§2) Anti-bacterial activity of the compound having Formula III was tested against several Gram-negative reference bacteria strains and compared to the anti-bacterial activity of three commercially available antibiotics (nadifloxacin, ofloxacin, and sparfloxacin). The results are shown in Table 2 as MIC90 values (minimum concentration of the active compound required to inhibit ninety percent of the growth of a specified pathogen, in μg/ml).
(§3) Anti-bacterial activity of the compound having Formula III was tested against some methicillin-resistant Staphylococcus aureus bacteria strains and compared to the anti-bacterial activity of three commercially available antibiotics (nadifloxacin, ofloxacin, and sparfloxacin).

[28] = system: Staphylococcus aureus (ATCC 33593); test: as above; conditions: ATCC33593; methicillin-resistant Staphylococcus aureus (ATCC 33593)
Method: as §2, §3

[29] = system: Staphylococcus aureus (No. 421); test: as above; conditions: methicillin-resistant Staphylococcus aureus (No. 421)
Method: as §2, §3

[30] = system: Staphylococcus aureus (No. 395); test: as above; conditions: methicillin-resistant Staphylococcus aureus (No. 395)
Method: as §2, §3

[31] = system: Staphylococcus aureus (ATCC 33592); test: as above; conditions: ATCC33592; methicillin-resistant Staphylococcus aureus (ATCC 33592)
Method: as §2, §3

[32] = system: Staphylococcus aureus (No. 415); test: as above; conditions: methicillin-resistant Staphylococcus aureus (No. 415)
Method: as §2, §3

[33] = system: Staphylococcus aureus (ATCC 33591); test: as above; conditions: ATCC33591; methicillin-resistant Staphylococcus aureus (ATCC 33591)
Method: as §2, §3

[34] = system: Staphylococcus aureus (No. 419); test: as above; conditions: methicillin-resistant Staphylococcus aureus (No. 419)
Method: as §2, §3

[35] = system: Propionibacterium acnes (GAI 5419); test: In vitro anti-bacterial activity (MIC90), anaerobic reference bacteria; conditions: Cutibacterium acnes
[36] = system: Penicillin-resistant Streptococcus pneumoniae; test: In vitro anti-bacterial activity (MIC90), ophthalmologic clinical bacteria isolates
Corynebacterium species = test: as above; conditions: Gram-positive

Work on `CC1COc2c(N3CCN(C)CC3)c(F)cc3c(=O)c(C(=O)O)cn1c23` (stereo not shown) [Ofloxacin] yielded an MIC90 [1] of 3.13 µg/mL (≈ 8.66 µM), an MIC90 [2] of 0.05 mμg/mL and an MIC90 [3] of 1.56 µg/mL (≈ 4.32 µM). For the same compound, the MIC90 [4] was 3.13 µg/mL (≈ 8.66 µM), the MIC90 (Pseudomonas aeruginosa) was 4 µg/mL (≈ 11.1 µM) and the MIC90 [5] was 0.78 µg/mL (≈ 2.16 µM). The MIC90 [6] was 0.39 µg/mL (≈ 1.08 µM), the MIC90 [7] was 64 µg/mL (≈ 177 µM) and the MIC90 [8] was greater than 128 µg/mL. It also gave an MIC90 (Streptococcus pneumoniae) of 2 µg/mL (≈ 5.53 µM), an MIC90 [9] of 8 µg/mL (≈ 22.1 µM) and an MIC90 [10] of 0.78 µg/mL (≈ 2.16 µM). The MIC90 [11] was 1.56 µg/mL (≈ 4.32 µM), the MIC90 (Propionibacterium acnes) was 1 µg/mL (≈ 2.77 µM) and the MIC90 (Staphylococcus aureus) was 32 µg/mL (≈ 88.6 µM). It also gave an MIC90 [12] of 0.39 µg/mL (≈ 1.08 µM), an MIC90 [13] of 1.56 µg/mL (≈ 4.32 µM) and an MIC90 [14] of 0.05 µg/mL (≈ 0.138 µM). For the same compound, the MIC90 [15] was 0.78 µg/mL (≈ 2.16 µM), the MIC90 [16] was 1.56 µg/mL (≈ 4.32 µM) and the MIC90 [17] was 1.56 µg/mL (≈ 4.32 µM). For the same compound, the MIC90 [18] was 3.13 µg/mL (≈ 8.66 µM), the MIC90 [19] was 1.56 µg/mL (≈ 4.32 µM) and the MIC90 [20] was 0.39 µg/mL (≈ 1.08 µM). It also gave an MIC90 [21] of 0.78 µg/mL (≈ 2.16 µM), an MIC90 [22] of 0.39 µg/mL (≈ 1.08 µM) and an MIC90 [23] of 0.2 µg/mL (≈ 0.553 µM). It also gave an MIC90 [24] of 0.2 µg/mL (≈ 0.553 µM), an MIC90 [25] of 0.78 µg/mL (≈ 2.16 µM) and an MIC90 (Moraxella species) of 0.13 µg/mL (≈ 0.36 µM). For the same compound, the MIC90 (Haemophilus influenzae) was no more than 0.06 µg/mL, the MIC90 [26] was 128 µg/mL (≈ 354 µM) and the MIC90 [27] was 1.56 µg/mL (≈ 4.32 µM). For the same compound, the MIC90 [28] was 0.2 µg/mL (≈ 0.553 µM), the MIC90 [29] was 1.56 µg/mL (≈ 4.32 µM) and the MIC90 [30] was 0.2 µg/mL (≈ 0.553 µM). It also gave an MIC90 [31] of 0.39 µg/mL (≈ 1.08 µM), an MIC90 [32] of 0.78 µg/mL (≈ 2.16 µM) and an MIC90 [33] of 0.05 µg/mL (≈ 0.138 µM). It also gave an MIC90 [34] of 3.13 µg/mL (≈ 8.66 µM), an MIC90 [35] of 0.78 µg/mL (≈ 2.16 µM) and an MIC90 [36] of 2 µg/mL (≈ 5.53 µM). The MIC90 (Corynebacterium species) was 32 µg/mL (≈ 88.6 µM).
